# Values joined by “and” are separate entries in the source; they are usually repeats but may differ in a detail not shown here. Identical values can stand only once. Inconclusive results and toxic doses are left out.
# Tested on: P388 leukemia ip, CD2F1 mice, survival T/C
# Assay: NCI In Vivo Anticancer Drug Screen. Data for tumor model P388 Leukemia (intraperitoneal) in CD2F1 (CDF1) mice
# Details: higher = longer survival
# Procedure, shortened: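 Mice carrying the transplanted tumor received test compound or vehicle. Survival was recorded in each group, and the value is the treated-group measurement divided by that of the vehicle-treated control group.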
# [1] = endpoint: median survival time, dose: 60.0 mg/kg/injection, schedule: Q01DX005 (ip), vehicle: Klucel (hydroxypropylcellulose) (HPC)
# [2] = endpoint: median survival time, dose: 120.0 mg/kg/injection, schedule: Q01DX005 (ip), vehicle: Klucel (hydroxypropylcellulose) (HPC)
# [3] = endpoint: median survival time, dose: 100.0 mg/kg/injection, schedule: Q04DX002 (ip), vehicle: saline with Tween-80
# [4] = endpoint: median survival time, dose: 200.0 mg/kg/injection, schedule: Q04DX002 (ip), vehicle: saline with Tween-80
# [5] = endpoint: median survival time, dose: 400.0 mg/kg/injection, schedule: Q04DX002 (ip), vehicle: saline with Tween-80
# [6] = endpoint: median survival time, dose: 12.5 mg/kg/injection, schedule: Q01DX009 (ip), vehicle: other
# [7] = endpoint: median survival time, dose: 25.0 mg/kg/injection, schedule: Q01DX009 (ip), vehicle: other
# [8] = endpoint: median survival time, dose: 50.0 mg/kg/injection, schedule: Q01DX009 (ip), vehicle: other
# [9] = endpoint: median survival time, dose: 100.0 mg/kg/injection, schedule: Q01DX009 (ip), vehicle: other
# [10] = endpoint: median survival time, dose: 200.0 mg/kg/injection, schedule: Q01DX009 (ip), vehicle: other
# [11] = endpoint: median survival time, dose: 50.0 mg/kg/injection, schedule: Q01DX005 (ip), vehicle: saline
# [12] = endpoint: median survival time, dose: 100.0 mg/kg/injection, schedule: Q01DX005 (ip), vehicle: saline
# [13] = endpoint: median survival time, dose: 200.0 mg/kg/injection, schedule: Q01DX005 (ip), vehicle: saline
# [14] = endpoint: median survival time, dose: 50.0 mg/kg/injection, schedule: Q01DX005 (ip), vehicle: Klucel (hydroxypropylcellulose) (HPC)
# [15] = endpoint: median survival time, dose: 100.0 mg/kg/injection, schedule: Q01DX005 (ip), vehicle: Klucel (hydroxypropylcellulose) (HPC)
# [16] = endpoint: median survival time, dose: 200.0 mg/kg/injection, schedule: Q01DX005 (ip), vehicle: Klucel (hydroxypropylcellulose) (HPC)
# [17] = endpoint: median survival time, dose: 100.0 mg/kg/injection, schedule: Q04DX003 (ip), vehicle: saline
smiles,measurement,setting,value
CCc1nc(N)nc(N)c1-c1ccc(N(C)Cc2ccccc2)c([N+](=O)[O-])c1,T/C,[1],116 % of control
same,T/C,[2],120 % of control
same,T/C,"endpoint: median survival time, dose: 240.0 mg/kg/injection, schedule: Q01DX005 (ip), vehicle: Klucel (hydroxypropylcellulose) (HPC)",185 % of control
same,T/C,"endpoint: median survival time, dose: 480.0 mg/kg/injection, schedule: Q01DX005 (ip), vehicle: Klucel (hydroxypropylcellulose) (HPC)",205 % of control
CCCCC[C@@H]1CCCC2C1CC[C@@H](CCCCCI)N2C(=O)OCC(Cl)(Cl)Cl (some centres undefined),T/C,[3],100 % of control
same,T/C,[4],100 % of control
same,T/C,[5],105 % of control
COc1ccc(/C(C#N)=C\c2ccnc3ccccc23)c(OC)c1,T/C,[6],87 % of control
same,T/C,[7],91 % of control
same,T/C,[8],87 % of control
same,T/C,[9],87 % of control
same,T/C,[10],87 % of control
CNC(=S)NNc1nc(N(C)C)nc(N(C)C)n1,T/C,[3],98 % of control
same,T/C,[4],92 % of control
same,T/C,[5],93 % of control
Oc1ccc2c(ccc3[nH]cnc32)c1,T/C,[11],98 % of control
same,T/C,[12],101 % of control
same,T/C,[13],111 % of control
C=CCNC(=O)C(NC(=O)OCCCC)NC(=O)OCCCC,T/C,"endpoint: median survival time, dose: 50.0 mg/kg/injection, schedule: Q01DX005 (ip), vehicle: saline with Tween-80",95 % of control
same,T/C,"endpoint: median survival time, dose: 100.0 mg/kg/injection, schedule: Q01DX005 (ip), vehicle: saline with Tween-80",87 % of control
same,T/C,"endpoint: median survival time, dose: 200.0 mg/kg/injection, schedule: Q01DX005 (ip), vehicle: saline with Tween-80",87 % of control
COc1cc(/C=N/NS(=O)(=O)c2ccc(C)cc2)cc([N+](=O)[O-])c1O,T/C,"endpoint: median survival time, dose: 3.12 mg/kg/injection, schedule: Q01DX009 (ip), vehicle: distilled water + Tween-80",87 % of control
same,T/C,"endpoint: median survival time, dose: 6.25 mg/kg/injection, schedule: Q01DX009 (ip), vehicle: distilled water + Tween-80",103 % of control
same,T/C,"endpoint: median survival time, dose: 12.5 mg/kg/injection, schedule: Q01DX009 (ip), vehicle: distilled water + Tween-80",104 % of control
same,T/C,"endpoint: median survival time, dose: 25.0 mg/kg/injection, schedule: Q01DX009 (ip), vehicle: distilled water + Tween-80",104 % of control
same,T/C,[7],106 % of control
same,T/C,[8],99 % of control
same,T/C,[9],106 % of control
same,T/C,[10],98 % of control
same,T/C,"endpoint: median survival time, dose: 400.0 mg/kg/injection, schedule: Q01DX009 (ip), vehicle: other",113 % of control
CC(C)CCCC(C)C1CCC2C3CCC4CC(OP(=O)(O)O)CCC4(C)C3CCC12C (centres undefined),T/C,"endpoint: median survival time, dose: 50.0 mg/kg/injection, schedule: Q01DX009 (ip), vehicle: saline with Tween-80",99 % of control
same,T/C,"endpoint: median survival time, dose: 100.0 mg/kg/injection, schedule: Q01DX009 (ip), vehicle: saline with Tween-80",96 % of control
same,T/C,"endpoint: median survival time, dose: 200.0 mg/kg/injection, schedule: Q01DX009 (ip), vehicle: saline with Tween-80",93 % of control
COc1cc(C)cc(OC)c1,T/C,"endpoint: median survival time, dose: 25.0 mg/kg/injection, schedule: Q01DX005 (ip), vehicle: Klucel (hydroxypropylcellulose) (HPC)",101 % of control
same,T/C,[14],100 % of control
same,T/C,[15],100 % of control
same,T/C,[16],110 % of control
CCOC(=O)c1c(C)cc2ccccn12,T/C,"endpoint: median survival time, dose: 60.0 mg/kg/injection, schedule: Q01DX005 (ip), vehicle: saline with Tween-80",103 % of control
same,T/C,"endpoint: median survival time, dose: 120.0 mg/kg/injection, schedule: Q01DX005 (ip), vehicle: saline with Tween-80",103 % of control
same,T/C,"endpoint: median survival time, dose: 240.0 mg/kg/injection, schedule: Q01DX005 (ip), vehicle: saline with Tween-80",105 % of control
O=C(CCS(=O)(=O)CCC(=O)c1cccs1)c1cccs1,T/C,[17],90 % of control
same,T/C,"endpoint: median survival time, dose: 200.0 mg/kg/injection, schedule: Q04DX003 (ip), vehicle: saline",90 % of control
same,T/C,"endpoint: median survival time, dose: 400.0 mg/kg/injection, schedule: Q04DX003 (ip), vehicle: saline",90 % of control
O=C1CN2Cc3c(sc4c3CCCC4)N=C2N1,T/C,[14],106 % of control
same,T/C,[15],102 % of control
same,T/C,[16],99 % of control
CC(NCCNC(C)C(=O)O)C(=O)O (centres undefined),T/C,[11],101 % of control
same,T/C,[12],103 % of control
same,T/C,[13],100 % of control
CC(C)SC(=S)Nc1ccc(Cl)c([N+](=O)[O-])c1,T/C,"endpoint: median survival time, dose: 50.0 mg/kg/injection, schedule: Q01DX009 (ip), vehicle: saline",99 % of control
same,T/C,"endpoint: median survival time, dose: 100.0 mg/kg/injection, schedule: Q01DX009 (ip), vehicle: saline",93 % of control
same,T/C,"endpoint: median survival time, dose: 200.0 mg/kg/injection, schedule: Q01DX009 (ip), vehicle: saline",103 % of control
COc1cc(Br)cc(/C=C(\C)[N+](=O)[O-])c1O,T/C,"endpoint: median survival time, dose: 12.5 mg/kg/injection, schedule: Q04DX003 (ip), vehicle: saline",101 % of control
same,T/C,"endpoint: median survival time, dose: 25.0 mg/kg/injection, schedule: Q04DX003 (ip), vehicle: saline",99 % of control and 108 % of control
same,T/C,"endpoint: median survival time, dose: 50.0 mg/kg/injection, schedule: Q04DX003 (ip), vehicle: saline",104 % of control and 110 % of control
same,T/C,[17],104 % of control
C=C1CC(C)(Cl)C(Cl)CC1/C=C/Cl (centres undefined),T/C,"endpoint: median survival time, dose: 1.87 mg/kg/injection, schedule: Q01DX009 (ip), vehicle: saline + alcohol",100 % of control
same,T/C,"endpoint: median survival time, dose: 3.75 mg/kg/injection, schedule: Q01DX009 (ip), vehicle: saline + alcohol",99 % of control
same,T/C,"endpoint: median survival time, dose: 7.5 mg/kg/injection, schedule: Q01DX009 (ip), vehicle: saline + alcohol",103 % of control
same,T/C,"endpoint: median survival time, dose: 15.0 mg/kg/injection, schedule: Q01DX009 (ip), vehicle: saline + alcohol",100 % of control
CCCCCC1CCCC2NC(=O)CCC12 (centres undefined),T/C,[3],104 % of control
same,T/C,[4],97 % of control
same,T/C,[5],89 % of control
CCOC(=O)C1=C(C)/C(=C/c2[n-]c(C)c(C(=O)OCC)c2C)N=C1C.CCOC(=O)C1=C(C)/C(=C/c2[n-]c(C)c(C(=O)OCC)c2C)N=C1C.[Co+2],T/C,"endpoint: mean survival time, dose: 12.5 mg/kg/injection, schedule: Q01DX001 (ip), vehicle: saline with Tween-80",95 % of control
same,T/C,"endpoint: mean survival time, dose: 25.0 mg/kg/injection, schedule: Q01DX001 (ip), vehicle: saline with Tween-80",92 % of control
same,T/C,"endpoint: mean survival time, dose: 50.0 mg/kg/injection, schedule: Q01DX001 (ip), vehicle: saline with Tween-80",90 % of control
Cc1onc(-c2ccccc2)c1C,T/C,"endpoint: median survival time, dose: 100.0 mg/kg/injection, schedule: Q01DX001 (ip), vehicle: saline",99 % of control
same,T/C,"endpoint: median survival time, dose: 200.0 mg/kg/injection, schedule: Q01DX001 (ip), vehicle: saline",102 % of control
same,T/C,"endpoint: median survival time, dose: 400.0 mg/kg/injection, schedule: Q01DX001 (ip), vehicle: saline",105 % of control
CCC[CH2][Sn]1([CH2]CCC)[O]C2C(O)OC(CO)C(O)C2[O]1 (centres undefined),T/C,"endpoint: median survival time, dose: 1.56 mg/kg/injection, schedule: Q04DX003 (ip), vehicle: saline",107 % of control
same,T/C,"endpoint: median survival time, dose: 3.12 mg/kg/injection, schedule: Q04DX003 (ip), vehicle: saline",107 % of control and 109 % of control
same,T/C,"endpoint: median survival time, dose: 6.25 mg/kg/injection, schedule: Q04DX003 (ip), vehicle: saline",111 % of control
Cc1ccc2c(c1)sc1n[nH]c(=O)n12,T/C,"endpoint: median survival time, dose: 50.0 mg/kg/injection, schedule: Q01DX009 (ip), vehicle: Klucel (hydroxypropylcellulose) (HPC)",100 % of control
same,T/C,"endpoint: median survival time, dose: 100.0 mg/kg/injection, schedule: Q01DX009 (ip), vehicle: Klucel (hydroxypropylcellulose) (HPC)",105 % of control
[N-]=[N+]=CC(=O)OCC1NC(=O)C(COC(=O)C=[N+]=[N-])NC1=O (centres undefined),T/C,[6],104 % of control and 102 % of control
same,T/C,[7],113 % of control and 101 % of control
same,T/C,[9],111 % of control and 120 % of control
same,T/C,[10],95 % of control and 111 % of control
same,T/C,"endpoint: median survival time, dose: 3.1 micrograms/kg/injection, schedule: Q01DX009 (ip), vehicle: water",109 % of control and 104 % of control
same,T/C,"endpoint: median survival time, dose: 6.1 micrograms/kg/injection, schedule: Q01DX009 (ip), vehicle: water",98 % of control and 101 % of control
same,T/C,"endpoint: median survival time, dose: 12.2 micrograms/kg/injection, schedule: Q01DX009 (ip), vehicle: water",114 % of control and 100 % of control
same,T/C,"endpoint: median survival time, dose: 24.4 micrograms/kg/injection, schedule: Q01DX009 (ip), vehicle: water",104 % of control and 107 % of control
same,T/C,"endpoint: median survival time, dose: 48.8 micrograms/kg/injection, schedule: Q01DX009 (ip), vehicle: water",100 % of control
same,T/C,"endpoint: median survival time, dose: 97.5 micrograms/kg/injection, schedule: Q01DX009 (ip), vehicle: water",92 % of control and 97 % of control
same,T/C,"endpoint: median survival time, dose: 195.0 micrograms/kg/injection, schedule: Q01DX009 (ip), vehicle: water",100 % of control and 96 % of control
same,T/C,"endpoint: median survival time, dose: 390.0 micrograms/kg/injection, schedule: Q01DX009 (ip), vehicle: water",109 % of control and 105 % of control
same,T/C,"endpoint: median survival time, dose: 780.0 micrograms/kg/injection, schedule: Q01DX009 (ip), vehicle: water",100 % of control
C[C@@H]1C(=O)O[C@H]2[C@H]1CC[C@@]1(C)C[C@@H](I)C(=O)[C@@H](C)[C@H]21,T/C,[1],92 % of control
same,T/C,[2],108 % of control

# Source: PubChem BioAssay AID330 (DTP/NCI, 2004)
